Entries after “also recorded” stand apart in the source; their conditions may differ. Read-outs that look alike come from different tables or passages of the source.
Experiments:
NF-κB [1] = experiment: Measurement of NF-κB activation using THP1-Blue NF-κB cells (SEAP); type: cell-based; settings: for NF-κB activity (SAR discussion, in words): evaluated in both the presence and absence of LPS
NF-κB [2] = experiment: cell-based NF-κB FRET assay; settings: compound + LPS; two point normalized, compound 1 as 200%, LPS (10 ng/mL) as 100%
Source text: Site A was assigned the 4-substituent of thiazole ring, site B was the thiazole ring itself, site C was the central amide bond in the structure, site D was the benzene ring bearing 1,4-carboxyl and sulfamoyl group, site E was the sulfonamide functional group and site F was the amide substituent on the sulfamoyl group.

THP-1 cells = experiment: Cell viability assay (MTT); type: cell-based; settings: compound 5 μM alone, 18 h, normalized to DMSO as 100%
Method: THP-1 cells were plated in 96-well plates (10^5 cells/well) in 100 μL RPMI supplemented with 10% FBS, 100 U/mL penicillin and 100 μg/ml streptomycin. Compounds were dissolved in DMSO at 1 mM stock solution and were further diluted to 10 μM in the assay medium. 100 μL of this solution was added to the cells to obtain a final compound concentration of 5 μM ([…]). After 18 h incubation, a solution of MTT in assay media (0.5 mg/mL) was added to each well and further incubated for 4 to 6 h, followed by addition of cell lysis buffer (15% w/v SDS and 0.12% v/v 12N HCl aqueous solution), incubated overnight, and then absorbance measured at 570 nm using 650 nm as reference using Tecan Infinite M200 plate reader.

[3] = compound 5 μM + LPS, 20 h, two point normalized, compound 1 as 200%, LPS (10 ng/mL) as 100%, read-out: NF-κB SEAP Compound + LPS % Activation
[4] = compound 5 μM alone, 20 h, two point normalized, compound 1 as 200%, LPS or DMSO as 100%, read-out: NF-κB SEAP Compound alone % Activation

SMILES | activity at 5 µM (NF-κB [1]; [3]) [%] | activity at 5 µM (NF-κB [1]; [4]) [%] | NF-κB activity (SAR discussion, in words) (NF-κB [1]) | NF-κB FRET Compound + LPS % Activation (NF-κB [2]) [%] | MTT Compound alone % Viability (THP-1 cells) [%] | NF-κB activity when tested alone (in words) (NF-κB [1]; compound alone, without LPS) | NF-κB SEAP Compound + LPS % Activation (NF-κB [1]; compound 5 μM + LPS, 20 h, two point normalized, compound 1 as 200%, LPS (10 ng/mL) as 100%) [%] | NF-κB SEAP Compound alone % Activation (NF-κB [1]; compound 5 μM alone, 20 h, two point normalized, compound 1 as 200%, LPS or DMSO as 100%) [%]
Cc1ccc2c(c1)-c1nc(NC(=O)c3ccc(S(=O)(=O)N4CCCCC4)cc3)sc1C2 [Compound 12r, N-(5-methyl-8H-indeno[1,2-d]thiazol-2-yl)-4-(piperidin-1-ylsulfonyl)benzamide] | 95.6 | 102 | weakly active | 129.01 | 82.46 | – | – | –
Cc1ccc(C)c(-c2cccc(NC(=O)c3ccc(S(=O)(=O)N4CCCCC4)cc3)n2)c1 [Compound 18b, N-(6-(2,5-dimethylphenyl)pyridin-2-yl)-4-(piperidin-1-ylsulfonyl)benzamide] | – | 99.6 | none of these molecules that replaced the thiazole functionality were active | 146.10 | 93.89 | – | – | –
Cc1ccc(C)c(-c2csc(NS(=O)(=O)c3ccc(C(=O)N4CCCCC4)cc3)n2)c1 [Compound 55, N-(4-(2,5-dimethylphenyl)thiazol-2-yl)-4-(piperidine-1-carbonyl)benzenesulfonamide] | 91.7 | 103 | inactive | 70.37 | 58.91 | – | – | –
CC(C)(C)Cc1csc(NC(=O)c2ccc(S(=O)(=O)N3CCCCC3)cc2)n1 [Compound 12j, N-(4-neopentylthiazol-2-yl)-4-(piperidin-1-ylsulfonyl)benzamide] | 93.9 | 99.5 | None of these molecules had any NF-κB activity | 110.62 | 125.52 | – | – | –
CCOC1CCN(S(=O)(=O)c2ccc(C(=O)Nc3nc(-c4cc(C)ccc4C)cs3)cc2)CC1 [Compound 58g, N-(4-(2,5-dimethylphenyl)thiazol-2-yl)-4-((4-ethoxypiperidin-1-yl)sulfonyl)benzamide] | 178 | 200 | active | 189.46 | 112.63 | – | – | –
CCCN(CC)S(=O)(=O)c1ccc(C(=O)Nc2nc(-c3cc(C)ccc3C)cs2)cc1 [Compound 58a, N-(4-(2,5-dimethylphenyl)thiazol-2-yl)-4-(N-ethyl-N-propylsulfamoyl)benzamide] | 217 | 207 | tolerated; also recorded: active | 158.36 | 73.63 | – | – | –
Cc1ccc(C)c(-c2csc(NC(=O)c3ccc(C(=O)N4CCCCC4)cc3)n2)c1 [Compound 49c, N-(4-(2,5-dimethylphenyl)thiazol-2-yl)-4-(piperidine-1-carbonyl)benzamide] | 109 | 99.3 | none of these modifications at site D or E were tolerated | 134.09 | 87.59 | – | – | –
CCCC1CCN(S(=O)(=O)c2ccc(C(=O)Nc3nc(-c4cc(C)ccc4C)cs3)cc2)CC1 [Compound 58h, N-(4-(2,5-dimethylphenyl)thiazol-2-yl)-4-((4-propylpiperidin-1-yl)sulfonyl)benzamide] | 248 | 517 | active; also recorded: most potent | 218.16 | 111.27 | very potent | – | –
CCN(c1ccccc1)S(=O)(=O)c1ccc(C(=O)Nc2nc(-c3cc(C)ccc3C)cs2)cc1 [Compound 58d, N-(4-(2,5-dimethylphenyl)thiazol-2-yl)-4-(N-ethyl-N-phenylsulfamoyl)benzamide] | 89.8 | 105 | inactive | 74.73 | 81.42 | – | – | –
CCCC#Cc1sc(NC(=O)c2ccc(S(=O)(=O)N3CCC(CCC)CC3)cc2)nc1-c1cc(C)ccc1C [Compound 61, N-(4-(2,5-dimethylphenyl)-5-(pent-1-yn-1-yl)thiazol-2-yl)-4-((4-propylpiperidin-1-yl)sulfonyl)benzamide] | 189 | 119 | very potent and showed better potency than compound 1 | 207.19 | 102.98 | – | – | –
Cc1ccc(Br)cc1-c1csc(NC(=O)c2ccc(S(=O)(=O)N3CCCCC3)cc2)n1 [Compound 12e, N-(4-(5-bromo-2-methylphenyl)thiazol-2-yl)-4-(piperidin-1-ylsulfonyl)benzamide] | 213 | 207 | active | 189.97 | 91.50 | – | – | –
CCCN(CCC)S(=O)(=O)c1ccc(C(=O)Nc2nc(-c3cc(C)ccc3C)cs2)cc1 [Compound 58b, N-(4-(2,5-dimethylphenyl)thiazol-2-yl)-4-(N,N-dipropylsulfamoyl)benzamide] | 260 | 243 | tolerated; also recorded: active | 190.52 | 83.69 | – | – | –
CCCC1CCN(S(=O)(=O)c2ccc(C(=O)Nc3nc(-c4cc(C)ccc4Br)cs3)cc2)CC1 [Compound 59, N-(4-(2-bromo-5-methylphenyl)thiazol-2-yl)-4-((4-propylpiperidin-1-yl)sulfonyl)benzamide] | 298 | 484 | very potent and showed better potency than compound 1 | 211.88 | 98.59 | – | – | –
Cc1ccc(C)c(-c2csc(NC(=O)c3ccc(S(=O)(=O)N4CCCCC4)cn3)n2)c1 [Compound 46a, N-(4-(2,5-dimethylphenyl)thiazol-2-yl)-5-(piperidin-1-ylsulfonyl)picolinamide] | 111 | 99.2 | none of these modifications at site D or E were tolerated | 151.90 | 94.46 | – | – | –
Cc1ccc(C)c(-c2nc(NC(=O)c3ccc(S(=O)(=O)N4CCCCC4)cc3)sc2Br)c1 [Compound 18n, N-(5-bromo-4-(2,5-dimethylphenyl)thiazol-2-yl)-4-(piperidin-1-ylsulfonyl)benzamide] | 198 | 133 | – | 154.54 | 84.46 | – | – | –
CCSc1sc(NC(=O)c2ccc(S(=O)(=O)N3CCCCC3)cc2)nc1-c1cc(C)ccc1C [Compound 18k, N-(4-(2,5-dimethylphenyl)-5-(ethylthio)thiazo-2-yl)-4-(piperidin-1-ylsulfonyl)benzamide] | – | – | completely inactive | 167.51 | 111.74 | – | 104.47 | 100.75
Cc1ccc(C)c(-c2nc(NC(=O)c3ccc(S(=O)(=O)N4CCCCC4)cc3)sc2N2CCCCC2)c1 [Compound 18h, N-(4-(2,5-dimethylphenyl)-5-(piperidin-1-yl)thiazol-2-yl)-4-(piperidin-1-ylsulfonyl)benzamide] | 99.9 | 99.2 | completely inactive | 99.96 | 89.45 | – | – | –
